The text below walks through data of patent publication US11339144B2 (Navitor Pharmaceuticals, Inc., priority 2017, dated 2022).

One assay deals with Rheb (Homo sapiens (Human), UniProt Q15382). The assay is described as follows: Affinity Selection Mass Spectrometry (ASMS). It counts as binding. To be noted: affinity (R3/R0) in Affinity Selection Mass Spectrometry assay. An outline of the steps: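 Affinity selection used 2 μM compound with 60 μM Rheb and 180 μM GDP for 30 min at room temperature. After 10 kDa ultrafiltration washes, protein was denatured in MeCN and bound compound quantified by C18 UPLC with Q-TOF MS, against a no-protein control.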

Assay [1] deals with HA-GST-Rheb (GTP-γ-S loaded) activating mTORC1 (Homo sapiens (Human), UniProt Q15382). The assay is described as follows: Rheb-dependent in vitro kinase assay (Rheb-IVK; LanthaScreen or Western readout). To be noted: Rheb-dependent in vitro kinase assay; read-out: IVK IC50. It counts as biochemical. For orientation: Time-resolved FRET reads energy transfer from a long-lived donor to a nearby acceptor.

Where only a bound is given, the exact number is not on record here.

In general, IC50 refers to the midpoint of a concentration-inhibition curve.

HA-GST-Rheb (GTP-γ-S loaded) activating mTORC1, sequence (Q15382 1-181): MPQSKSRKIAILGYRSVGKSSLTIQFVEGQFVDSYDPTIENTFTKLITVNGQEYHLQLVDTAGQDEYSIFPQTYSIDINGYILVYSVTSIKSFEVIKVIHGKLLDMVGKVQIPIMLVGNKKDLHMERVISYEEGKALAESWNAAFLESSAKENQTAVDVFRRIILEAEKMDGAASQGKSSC
Rheb, sequence (Q15382 1-169 limits assumed): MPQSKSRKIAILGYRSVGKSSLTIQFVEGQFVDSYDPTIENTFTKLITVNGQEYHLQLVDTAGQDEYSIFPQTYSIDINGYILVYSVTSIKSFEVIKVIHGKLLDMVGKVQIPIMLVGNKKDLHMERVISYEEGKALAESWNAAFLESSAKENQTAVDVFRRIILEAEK

Take `O=C(O)c1cc2c(Sc3ccc(OC(F)(F)F)cc3)cc(Cl)cc2[nH]1` [I-129, 6-chloro-4-(4-(trifluoromethoxy)phenylthio)-1H-indole-2-carboxylic acid]: the “ASMS (R3/R0)” value at Rheb is “B (an affinity (R3/R0) between 100% and 20%)”. For the same compound, the half-maximal inhibitory concentration (IC50) in assay [1] lay in the range of 10 to 100 µM.
For `O=C(NCCn1ccc2ccccc21)c1cc2c(Sc3ccc(Cl)cc3)cc(Cl)cc2[nH]1` [I-131], at Rheb, the “ASMS (R3/R0)” value is “B (an affinity (R3/R0) between 100% and 20%)”. In addition, in assay [1], the IC50 was > 100 µM.
With `NC(=O)C1CCCN(C(=O)c2cc3c(Sc4ccc(Cl)cc4)cc(Cl)cc3[nH]2)C1` (stereo not shown) [I-132], the “ASMS (R3/R0)” value on Rheb is “B (an affinity (R3/R0) between 100% and 20%)”. The IC50 in assay [1] is > 100 µM.
In the case of `OCc1cc2c(Br)cc(Sc3ccc(Cl)c(Cl)c3)cc2[nH]1` [I-133, (4-bromo-6-(3,4-dichlorophenylthio)-1H-indol-2-yl)methanol], at Rheb, the “ASMS (R3/R0)” value was “B (an affinity (R3/R0) between 100% and 20%)”. In assay [1], the IC50 is < 10 µM.
Regarding `OCc1cc2c(Sc3ccc4ccccc4c3)cc(Cl)cc2[nH]1` [I-134, (6-chloro-4-(naphthalen-2-ylthio)-1H-indol-2-yl)methanol], the “ASMS (R3/R0)” value on Rheb is “B (an affinity (R3/R0) between 100% and 20%)”. Also, in assay [1], the half-inhibitory concentration (IC50) was 10 to 100 µM.
With `COc1ccc(Sc2cc(Cl)cc3[nH]c(CO)cc23)cc1OC` [I-135], the “ASMS (R3/R0)” value at Rheb is “B (an affinity (R3/R0) between 100% and 20%)”. The 50% inhibitory concentration (IC50) in assay [1] was > 100 µM.
As to `O=C(NCC1CCN(Cc2ccccc2)C1)c1cc2c(Sc3ccc(Cl)cc3)cc(Cl)cc2[nH]1` (stereo not shown) [I-136], the “ASMS (R3/R0)” value on Rheb is given as “A (an affinity (R3/R0)>100%)”. Also, the 50% inhibitory concentration (IC50) in assay [1] was > 100 µM.
With `CS(=O)(=O)CCNC(=O)c1cc2c(Sc3ccc(Cl)cc3)cc(Cl)cc2[nH]1` [I-137], on Rheb, the “ASMS (R3/R0)” value is listed as “A (an affinity (R3/R0)>100%)”. For the same compound, the 50% inhibitory concentration (IC50) in assay [1] is > 100 µM.
Turning to `O=C(O)c1cc2c(Br)cc(Sc3ccc(Cl)c(Cl)c3)cc2[nH]1` [I-139, 4-bromo-6-(3,4-dichlorophenylthio)-1H-indole-2-carboxylic acid], the “ASMS (R3/R0)” value on Rheb was “B (an affinity (R3/R0) between 100% and 20%)”. Moreover, the IC50 in assay [1] was < 10 µM.
For `O=C(NCC1CCOCC1)c1cc2c(Sc3ccc(Cl)cc3)cc(Cl)cc2[nH]1` [I-143], the “ASMS (R3/R0)” value at Rheb is “B (an affinity (R3/R0) between 100% and 20%)”. Further, the concentration for half-maximal inhibition (IC50) in assay [1] is > 100 µM.
As to `COc1cccc(CCNC(=O)c2cc3c(Sc4ccc(Cl)cc4)cc(Cl)cc3[nH]2)c1` [I-144], the “ASMS (R3/R0)” value on Rheb was “B (an affinity (R3/R0) between 100% and 20%)”. The half-inhibitory concentration (IC50) in assay [1] was > 100 µM.
Consider `OCc1cc2c(Br)cc(SCc3ccc(Cl)cc3)cc2[nH]1` [I-145, (4-bromo-6-(4-chlorobenzylthio)-1H-indol-2-yl)methanol], for which the “ASMS (R3/R0)” value at Rheb is “B (an affinity (R3/R0) between 100% and 20%)”. In addition, the IC50 in assay [1] lay within 10 to 100 µM.
With `O=C1CCC(CNC(=O)c2cc3c(Sc4ccc(Cl)cc4)cc(Cl)cc3[nH]2)N1` (stereo not shown) [I-147], the “ASMS (R3/R0)” value at Rheb is “A (an affinity (R3/R0)>100%)”. In addition, the IC50 in assay [1] was > 100 µM.
In the case of `O=C(NCCN1CCCC1)c1cc2c(Sc3ccc(Cl)cc3)cc(Cl)cc2[nH]1` [I-148, 6-chloro-4-(4-chlorophenylthio)-N-(2-(pyrrolidin-1-yl)ethyl)-1H-indole-2-carboxamide], at Rheb, the “ASMS (R3/R0)” value is “B (an affinity (R3/R0) between 100% and 20%)”. The half-maximal inhibitory concentration (IC50) in assay [1] was in the range of 10 to 100 µM.
Consider `O=C(NCc1ccccn1)c1cc2c(Sc3ccc(Cl)cc3)cc(Cl)cc2[nH]1` [I-149, 6-chloro-4-(4-chlorophenylthio)-N-(pyridin-2-ylmethyl)-1H-indole-2-carboxamide], for which the “ASMS (R3/R0)” value at Rheb was “B (an affinity (R3/R0) between 100% and 20%)”. Also, the IC50 in assay [1] fell in the range of 10 to 100 µM.
With `CC(=O)c1cc2c(Oc3ccccc3)cc(Cl)cc2[nH]1` [I-150], on Rheb, the “ASMS (R3/R0)” value is given as “C (an affinity (R3/R0)<20%)”. Besides, the IC50 in assay [1] was > 100 µM.
For the compound `CC(C)(C)OC(=O)c1ccc(Cn2c(CO)cc3c(Br)cc(Oc4ccccc4)cc32)cc1` [I-151], at Rheb, the “ASMS (R3/R0)” value is recorded as “C (an affinity (R3/R0)<20%)”. For the same compound, the IC50 in assay [1] was > 100 µM.
Consider `OCc1cc2c(Sc3ccc(F)c(F)c3)cc(Cl)cc2[nH]1` [I-152, (6-chloro-4-(3,4-difluorophenylthio)-1H-indol-2-yl)methanol], for which the “ASMS (R3/R0)” value on Rheb is “B (an affinity (R3/R0) between 100% and 20%)”. Also, the half-maximal inhibitory concentration (IC50) in assay [1] fell in the range of 10 to 100 µM.
Take `OCc1cc2c(Sc3ccc(F)cc3)cc(Cl)cc2[nH]1` [I-153, (6-chloro-4-(4-fluorophenylthio)-1H-indol-2-yl)methanol]: the “ASMS (R3/R0)” value at Rheb was “B (an affinity (R3/R0) between 100% and 20%)”. Besides, the IC50 in assay [1] fell in the range of 10 to 100 µM.
Turning to `O=C(O)c1cc2c(Sc3ccc(F)c(F)c3)cc(Cl)cc2[nH]1` [I-155, 6-chloro-4-(3,4-difluorophenylthio)-1H-indole-2-carboxylic acid], the “ASMS (R3/R0)” value at Rheb is “B (an affinity (R3/R0) between 100% and 20%)”. Also, in assay [1], the IC50 fell in the range of 10 to 100 µM.
`O=C(O)c1cc2c(Sc3ccc(F)cc3)cc(Cl)cc2[nH]1` [I-156, 6-chloro-4-(4-fluorophenylthio)-1H-indole-2-carboxylic acid]: the “ASMS (R3/R0)” value on Rheb is “B (an affinity (R3/R0) between 100% and 20%)”. Moreover, the IC50 in assay [1] was in the range of 10 to 100 µM.
Turning to `O=C(O)c1cc2c(Sc3ccc(Cl)cc3Cl)cc(Cl)cc2[nH]1` [I-157, 6-chloro-4-(2,4-dichlorophenylthio)-1H-indole-2-carboxylic acid], the “ASMS (R3/R0)” value at Rheb was “B (an affinity (R3/R0) between 100% and 20%)”. For the same compound, in assay [1], the half-maximal inhibitory concentration (IC50) is < 10 µM.
With `O=C(O)Cn1ccc2c(Oc3cc(Cl)ccc3Cl)cc(Cl)cc21` [I-158, 2-(6-Chloro-4-(2,5-dichlorophenoxy)-1H-indol-1-yl)acetic acid], the “ASMS (R3/R0)” value at Rheb was “B (an affinity (R3/R0) between 100% and 20%)”. Further, the concentration for half-maximal inhibition (IC50) in assay [1] was 10 to 100 µM.
Consider `C[Si](C)(C)CC(O)c1cc2c(Oc3ccccc3)cc(Cl)cc2[nH]1` (stereo not shown) [I-159, 1-(6-chloro-4-phenoxy-1H-indol-2-yl)-2-(trimethylsilyl)ethanol], for which, on Rheb, the “ASMS (R3/R0)” value is “C (an affinity (R3/R0)<20%)”. Moreover, the concentration for half-maximal inhibition (IC50) in assay [1] is 10 to 100 µM.
Regarding `N#Cc1ccc(Cn2ccc3c(Sc4ccc(Cl)cc4Cl)cccc32)cc1` [I-160], the “ASMS (R3/R0)” value at Rheb was “C (an affinity (R3/R0)<20%)”. In addition, in assay [1], the 50% inhibitory concentration (IC50) was > 100 µM.
For `Clc1ccc(Sc2cccc3c2ccn3Cc2ccc(-c3nnn[nH]3)cc2)c(Cl)c1` [I-161, 1-(4-(1H-tetrazol-5-yl)benzyl)-4-(2,4-dichlorophenylthio)-1H-indole], in that order: “A (an affinity (R3/R0)>100%)” and < 10 µM.
`O=C(O)Cn1c(C(=O)O)cc2c(Oc3cc(Cl)ccc3Cl)cc(Cl)cc21` [I-162, 1-(Carboxymethyl)-6-chloro-4-(2,5-dichlorophenoxy)-1H-indole-2-carboxylic acid]: the “ASMS (R3/R0)” value at Rheb was “B (an affinity (R3/R0) between 100% and 20%)”. Moreover, the IC50 in assay [1] lay within 100 to 300 µM.
With `CC(C)(C)OC(=O)c1ccc(Cn2ccc3c(Br)cc(Oc4ccccc4)cc32)cc1` [I-163], the “ASMS (R3/R0)” value at Rheb is recorded as “C (an affinity (R3/R0)<20%)”. Further, the IC50 in assay [1] is > 100 µM.
`O=C(O)c1ccc(Cn2ccc3c(Br)cc(Oc4ccccc4)cc32)cc1` [I-164, 4-((4-bromo-6-phenoxy-1H-indol-1-yl)methyl)benzoic acid]: the “ASMS (R3/R0)” value on Rheb was “B (an affinity (R3/R0) between 100% and 20%)”. For the same compound, the IC50 in assay [1] was 10 to 100 µM.
Turning to `O=C(O)c1ccc(Cn2c(C(=O)O)cc3c(Br)cc(Oc4ccccc4)cc32)cc1` [I-165, 4-bromo-1-(4-carboxybenzyl)-6-phenoxy-1H-indole-2-carboxylic acid], the “ASMS (R3/R0)” value on Rheb was “B (an affinity (R3/R0) between 100% and 20%)”. In assay [1], the IC50 fell in the range of 10 to 100 µM.
As for `OCc1ccc(Cn2c(CO)cc3c(Br)cc(Oc4ccccc4)cc32)cc1` [I-166], at Rheb, the “ASMS (R3/R0)” value was “B (an affinity (R3/R0) between 100% and 20%)”. Further, the concentration for half-maximal inhibition (IC50) in assay [1] is > 100 µM.
Take `CC(C)(C)OC(=O)c1ccc(Cn2c(C(=O)O)cc3c(Br)cc(Oc4ccccc4)cc32)cc1` [I-167, 4-bromo-1-(4-(tert-butoxycarbonyl)benzyl)-6-phenoxy-1H-indole-2-carboxylic acid]: the “ASMS (R3/R0)” value on Rheb was “B (an affinity (R3/R0) between 100% and 20%)”. Further, the half-inhibitory concentration (IC50) in assay [1] is < 10 µM.
As to `NCCn1c(CO)cc2c(Oc3ccccc3)cc(Cl)cc21` [I-168], the “ASMS (R3/R0)” value on Rheb is listed as “C (an affinity (R3/R0)<20%)”. Further, in assay [1], the concentration for half-maximal inhibition (IC50) was > 100 µM.
As for `NC(=O)c1cc2c(Oc3ccccc3)cc(Cl)cc2[nH]1` [I-169, 6-chloro-4-phenoxy-1H-indole-2-carboxamide], at Rheb, the “ASMS (R3/R0)” value was “B (an affinity (R3/R0) between 100% and 20%)”. For the same compound, in assay [1], the IC50 fell in the range of 10 to 100 µM.
As to `NCc1cc2c(Oc3ccccc3)cc(Cl)cc2[nH]1` [I-170, (6-chloro-4-phenoxy-1H-indol-2-yl)methanamine], the “ASMS (R3/R0)” value at Rheb was “B (an affinity (R3/R0) between 100% and 20%)”. In addition, the IC50 in assay [1] was in the range of 10 to 100 µM.
Regarding `OCc1cc2c(Oc3cc(Cl)ccc3Cl)cc(Cl)cc2[nH]1` [I-171, (6-Chloro-4-(2,5-dichlorophenoxy)-1H-indol-2-yl)methanol], the “ASMS (R3/R0)” value on Rheb was “B (an affinity (R3/R0) between 100% and 20%)”. Also, the IC50 in assay [1] is 10 to 100 µM.
For `O=C(O)c1cc2c(Oc3cc(Cl)ccc3Cl)cc(Cl)cc2[nH]1` [I-172, 6-Chloro-4-(2,5-dichlorophenoxy)-1H-indole-2-carboxylic acid], the “ASMS (R3/R0)” value on Rheb was “B (an affinity (R3/R0) between 100% and 20%)”. Further, the IC50 in assay [1] lay in the range of 10 to 100 µM.
As for `O=C(O)c1cc2c(Cl)cc(Oc3ccccc3)cc2n1Cc1c[nH]cn1` [I-173, 1-((1H-imidazol-4-yl)methyl)-4-chloro-6-phenoxy-1H-indole-2-carboxylic acid], the “ASMS (R3/R0)” value on Rheb is given as “C (an affinity (R3/R0)<20%)”. Also, the half-inhibitory concentration (IC50) in assay [1] fell in the range of 10 to 100 µM.
